# Results: ChEMBL document CHEMBL3885861, “Open TG-GATES”
# Organism: Rattus norvegicus
# Assay: Open TG-GATES - Regimen: Single
# Type: toxicity, organism-based, Sprague-Dawley
# Design: regimen Single, gender Male, age 6 weeks
# Details: in vivo, po, route gavage; for APTT / Bas / Eos / Fbg / Hb / Ht / Lym / MCH / MCHC / MCV / Mono / Neu / PT / Plat / RBC / Ret / WBC: tissue Blood; for KIDNEY_L / KIDNEY_R / KIDNEY_TOTAL: tissue Kidney; for LIVER: tissue Liver; for ALP / ALT / AST / BUN / CRE / Ca / DBIL / GLC / IP / K / LDH / Na / PL / RALB / TBIL / TC / TG / TP / gamma-GTP: tissue Plasma
# [1] = 30 mg/kg, 3 h, dose level Middle
# [2] = 30 mg/kg, 6 h, dose level Middle
# [3] = 30 mg/kg, 9 h, dose level Middle
# [4] = 30 mg/kg, 24 h, dose level Middle
# [5] = 100 mg/kg, 3 h, dose level High
# [6] = 100 mg/kg, 6 h, dose level High
# [7] = 100 mg/kg, 9 h, dose level High
# [8] = 100 mg/kg, 24 h, dose level High
smiles,measurement,setting,value
CSc1ccc2c(c1)N(CCC1CCCCN1C)c1ccccc1S2 (stereo not given) [THIORIDAZINE],TERMINAL_BW,[1],215.8 g
same,APTT,[1],16.7 s
same,Bas,[1],0%
same,Eos,[1],1%
same,Fbg,[1],201.2 mg/dL
same,Hb,[1],12.4 g/dL
same,Ht,[1],37.2%
same,Lym,[1],73.8%
same,MCH,[1],22.1 pg
same,MCHC,[1],33.3%
same,MCV,[1],66.4 fL
same,Mono,[1],8.8%
same,Neu,[1],16.8%
same,PT,[1],12.5 s
same,Plat,[1],102.7 x10_4/uL
same,RBC,[1],560.6 x10_4/ul
same,Ret,[1],8.6%
same,WBC,[1],77.9 x10_2/uL
same,KIDNEY_L,[1],1 g
same,KIDNEY_R,[1],1 g
same,KIDNEY_TOTAL,[1],2 g
same,LIVER,[1],10.5 g
same,ALP,[1],794 IU/L
same,ALT,[1],37.8 IU/L
same,AST,[1],66.6 IU/L
same,BUN,[1],12.4 mg/dL
same,CRE,[1],0.5 mg/dL
same,Ca,[1],11.1 mg/dL
same,DBIL,[1],0.04 mg/dL
same,GLC,[1],206.6 mg/dL
same,IP,[1],10.3 mg/dL
same,K,[1],4.4 meq/L
same,LDH,[1],91.2 IU/L
same,Na,[1],139 meq/L
same,PL,[1],127.2 mg/dL
same,RALB,[1],3.6 g/dL
same,TBIL,[1],0.4 mg/dL
same,TC,[1],70.2 mg/dL
same,TG,[1],43.6 mg/dL
same,TP,[1],5.2 g/dL
same,gamma-GTP,[1],1 IU/L
same,TERMINAL_BW,[2],216.3 g
same,APTT,[2],15.9 s
same,Bas,[2],0%
same,Eos,[2],0.6%
same,Fbg,[2],230.2 mg/dL
same,Hb,[2],12.5 g/dL
same,Ht,[2],37.5%
same,Lym,[2],74.2%
same,MCH,[2],21.9 pg
same,MCHC,[2],33.2%
same,MCV,[2],66 fL
same,Mono,[2],7.8%
same,Neu,[2],17.4%
same,PT,[2],12 s
same,RBC,[2],569.4 x10_4/ul
same,Ret,[2],8%
same,WBC,[2],91.2 x10_2/uL
same,KIDNEY_L,[2],1 g
same,KIDNEY_R,[2],1 g
same,KIDNEY_TOTAL,[2],2 g
same,LIVER,[2],10.3 g
same,ALP,[2],765.6 IU/L
same,ALT,[2],30.2 IU/L
same,AST,[2],63.2 IU/L
same,BUN,[2],10.2 mg/dL
same,CRE,[2],0.5 mg/dL
same,Ca,[2],10.8 mg/dL
same,DBIL,[2],0.022 mg/dL
same,GLC,[2],208.6 mg/dL
same,IP,[2],10.9 mg/dL
same,K,[2],4.5 meq/L
same,LDH,[2],98.4 IU/L
same,Na,[2],139.4 meq/L
same,PL,[2],154 mg/dL
same,RALB,[2],3.8 g/dL
same,TBIL,[2],0.4 mg/dL
same,TC,[2],81.4 mg/dL
same,TG,[2],62.8 mg/dL
same,TP,[2],5.4 g/dL
same,gamma-GTP,[2],1.6 IU/L
same,TERMINAL_BW,[3],213.1 g
same,APTT,[3],16.2 s
same,Bas,[3],0%
same,Eos,[3],0.4%
same,Fbg,[3],213.4 mg/dL
same,Hb,[3],12.6 g/dL
same,Ht,[3],38%
same,Lym,[3],80.6%
same,MCH,[3],21.8 pg
same,MCHC,[3],33.3%
same,MCV,[3],65.6 fL
same,Mono,[3],6%
same,Neu,[3],13.2%
same,PT,[3],12.3 s
same,Plat,[3],108 x10_4/uL
same,RBC,[3],578.8 x10_4/ul
same,Ret,[3],7.8%
same,WBC,[3],109.8 x10_2/uL
same,KIDNEY_L,[3],0.9 g
same,KIDNEY_R,[3],1 g
same,KIDNEY_TOTAL,[3],1.9 g
same,LIVER,[3],9.6 g
same,ALP,[3],971.8 IU/L
same,ALT,[3],28.2 IU/L
same,AST,[3],58.2 IU/L
same,BUN,[3],12.6 mg/dL
same,CRE,[3],0.6 mg/dL
same,Ca,[3],10.9 mg/dL
same,DBIL,[3],0.018 mg/dL
same,GLC,[3],215.6 mg/dL
same,IP,[3],10.6 mg/dL
same,K,[3],4.3 meq/L
same,LDH,[3],82.4 IU/L
same,Na,[3],141 meq/L
same,PL,[3],148.8 mg/dL
same,RALB,[3],3.8 g/dL
same,TBIL,[3],0.4 mg/dL
same,TC,[3],82.2 mg/dL
same,TG,[3],59.6 mg/dL
same,TP,[3],5.6 g/dL
same,gamma-GTP,[3],1.4 IU/L
same,TERMINAL_BW,[4],225.1 g
same,APTT,[4],16 s
same,Bas,[4],0%
same,Eos,[4],1%
same,Fbg,[4],215.4 mg/dL
same,Hb,[4],13.4 g/dL
same,Ht,[4],40.3%
same,Lym,[4],77.2%
same,MCH,[4],21.5 pg
same,MCHC,[4],33.3%
same,MCV,[4],64.6 fL
same,Mono,[4],9%
same,Neu,[4],12.8%
same,PT,[4],12.1 s
same,Plat,[4],108 x10_4/uL
same,RBC,[4],623.4 x10_4/ul
same,Ret,[4],8%
same,WBC,[4],124.9 x10_2/uL
same,KIDNEY_L,[4],1 g
same,KIDNEY_R,[4],1 g
same,KIDNEY_TOTAL,[4],2 g
same,LIVER,[4],11.7 g
same,ALP,[4],905.2 IU/L
same,ALT,[4],43 IU/L
same,AST,[4],69.8 IU/L
same,BUN,[4],19.4 mg/dL
same,CRE,[4],0.5 mg/dL
same,Ca,[4],11.5 mg/dL
same,DBIL,[4],0.062 mg/dL
same,GLC,[4],190.2 mg/dL
same,IP,[4],9.3 mg/dL
same,K,[4],4.9 meq/L
same,LDH,[4],89.2 IU/L
same,Na,[4],139.2 meq/L
same,PL,[4],163 mg/dL
same,RALB,[4],4 g/dL
same,TBIL,[4],0.3 mg/dL
same,TC,[4],84.4 mg/dL
same,TG,[4],119.8 mg/dL
same,TP,[4],5.9 g/dL
same,gamma-GTP,[4],1 IU/L
same,TERMINAL_BW,[5],217.7 g
same,APTT,[5],16.7 s
same,Bas,[5],0%
same,Eos,[5],1%
same,Fbg,[5],205.2 mg/dL
same,Hb,[5],12.6 g/dL
same,Ht,[5],38.2%
same,Lym,[5],70.2%
same,MCH,[5],21.9 pg
same,MCHC,[5],33.1%
same,MCV,[5],66.3 fL
same,Mono,[5],11%
same,Neu,[5],17.8%
same,PT,[5],12.2 s
same,RBC,[5],576.8 x10_4/ul
same,Ret,[5],8.6%
same,WBC,[5],56.2 x10_2/uL
same,KIDNEY_L,[5],1 g
same,KIDNEY_R,[5],1 g
same,KIDNEY_TOTAL,[5],2 g
same,LIVER,[5],10.5 g
same,ALP,[5],990.6 IU/L
same,ALT,[5],41.8 IU/L
same,AST,[5],70.2 IU/L
same,BUN,[5],11.2 mg/dL
same,CRE,[5],0.6 mg/dL
same,Ca,[5],11 mg/dL
same,DBIL,[5],0.018 mg/dL
same,GLC,[5],215 mg/dL
same,K,[5],4.2 meq/L
same,LDH,[5],163.8 IU/L
same,Na,[5],139.8 meq/L
same,PL,[5],138.2 mg/dL
same,RALB,[5],3.7 g/dL
same,TBIL,[5],0.3 mg/dL
same,TC,[5],80.2 mg/dL
same,TG,[5],34.4 mg/dL
same,TP,[5],5.3 g/dL
same,gamma-GTP,[5],1 IU/L
same,TERMINAL_BW,[6],215 g
same,APTT,[6],16.9 s
same,Bas,[6],0%
same,Eos,[6],0.6%
same,Fbg,[6],204.6 mg/dL
same,Hb,[6],12.5 g/dL
same,Ht,[6],37.7%
same,Lym,[6],71.6%
same,MCH,[6],21.6 pg
same,MCHC,[6],33.1%
same,MCV,[6],65.1 fL
same,Mono,[6],8.6%
same,Neu,[6],18.6%
same,PT,[6],12.2 s
same,Plat,[6],106.5 x10_4/uL
same,RBC,[6],579 x10_4/ul
same,Ret,[6],7.8%
same,WBC,[6],84.2 x10_2/uL
same,KIDNEY_L,[6],1 g
same,KIDNEY_R,[6],1 g
same,KIDNEY_TOTAL,[6],2 g
same,LIVER,[6],9.4 g
same,ALP,[6],868.4 IU/L
same,ALT,[6],30.8 IU/L
same,AST,[6],63.8 IU/L
same,BUN,[6],8.2 mg/dL
same,CRE,[6],0.5 mg/dL
same,Ca,[6],10.5 mg/dL
same,DBIL,[6],0.016 mg/dL
same,GLC,[6],211 mg/dL
same,IP,[6],10.6 mg/dL
same,K,[6],4.5 meq/L
same,LDH,[6],166.6 IU/L
same,Na,[6],139.6 meq/L
same,PL,[6],135.2 mg/dL
same,RALB,[6],3.7 g/dL
same,TBIL,[6],0.4 mg/dL
same,TC,[6],77.8 mg/dL
same,TG,[6],19.6 mg/dL
same,TP,[6],5.4 g/dL
same,gamma-GTP,[6],2.6 IU/L
same,TERMINAL_BW,[7],210.8 g
same,APTT,[7],16.3 s
same,Bas,[7],0%
same,Eos,[7],0.4%
same,Fbg,[7],215.6 mg/dL
same,Hb,[7],12.5 g/dL
same,Ht,[7],38.3%
same,Lym,[7],76.8%
same,MCH,[7],21 pg
same,MCHC,[7],32.8%
same,MCV,[7],64.1 fL
same,Mono,[7],7.2%
same,Neu,[7],15.6%
same,PT,[7],12.1 s
same,Plat,[7],110.2 x10_4/uL
same,RBC,[7],598.4 x10_4/ul
same,Ret,[7],7.3%
same,WBC,[7],80.7 x10_2/uL
same,KIDNEY_L,[7],1 g
same,KIDNEY_R,[7],1 g
same,KIDNEY_TOTAL,[7],2 g
same,LIVER,[7],9.4 g
same,ALP,[7],850.6 IU/L
same,ALT,[7],31.6 IU/L
same,AST,[7],61.2 IU/L
same,BUN,[7],9.6 mg/dL
same,CRE,[7],0.5 mg/dL
same,Ca,[7],10.6 mg/dL
same,DBIL,[7],0.018 mg/dL
same,GLC,[7],223.4 mg/dL
same,IP,[7],9.8 mg/dL
same,K,[7],4.2 meq/L
same,LDH,[7],144.8 IU/L
same,Na,[7],141.4 meq/L
same,PL,[7],155.2 mg/dL
same,RALB,[7],3.7 g/dL
same,TBIL,[7],0.4 mg/dL
same,TC,[7],84 mg/dL
same,TG,[7],28.4 mg/dL
same,TP,[7],5.4 g/dL
same,gamma-GTP,[7],1.2 IU/L
same,TERMINAL_BW,[8],217.8 g
same,APTT,[8],16.1 s
same,Bas,[8],0%
same,Eos,[8],1%
same,Fbg,[8],209 mg/dL
same,Hb,[8],13.5 g/dL
same,Ht,[8],40.5%
same,Lym,[8],84.4%
same,MCH,[8],21.5 pg
same,MCHC,[8],33.4%
same,MCV,[8],64.6 fL
same,Mono,[8],4.6%
same,Neu,[8],10%
same,PT,[8],12.2 s
same,Plat,[8],125.1 x10_4/uL
same,RBC,[8],628 x10_4/ul
same,Ret,[8],7.3%
same,WBC,[8],102 x10_2/uL
same,KIDNEY_L,[8],1 g
same,KIDNEY_R,[8],1 g
same,KIDNEY_TOTAL,[8],2.1 g
same,LIVER,[8],10.9 g
same,ALP,[8],952.2 IU/L
same,ALT,[8],35.4 IU/L
same,AST,[8],62.4 IU/L
same,BUN,[8],21.4 mg/dL
same,CRE,[8],0.5 mg/dL
same,Ca,[8],11.2 mg/dL
same,DBIL,[8],0.022 mg/dL
same,GLC,[8],210.8 mg/dL
same,IP,[8],9.8 mg/dL
same,K,[8],4.5 meq/L
same,LDH,[8],166.8 IU/L
same,Na,[8],140.4 meq/L
same,PL,[8],172.6 mg/dL
same,RALB,[8],4.2 g/dL
same,TBIL,[8],0.3 mg/dL
same,TC,[8],91.4 mg/dL
same,TG,[8],97.8 mg/dL
same,TP,[8],6.1 g/dL
same,gamma-GTP,[8],1.4 IU/L
